Patent US12077503B2, “Substituted cyclic amides and their use as herbicides” (FMC CORPORATION, priority 2015, dated 2024)

How the values were obtained:
Assay in all cases: Test C preemergence
Type in all cases: in vivo
[1] = system: barnyardgrass (Echinochloa crus-galli); settings: for Plant response rating, Barnyardgrass: scale 0 to 100, 0 no effect, 100 complete control
Method in brief: (§1)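 Scores of 0 to 100 reflect visual comparison with control plants, where 0 means no effect and 100 complete control, made 13 to 15 d after treatment. Application was preemergence to seeds in loam-sand soil or postemergence to plants 2 to 18 cm tall in peat-based mix, using a surfactant-containing solvent formulation.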

[2] = system: blackgrass (Alopecurus myosuroides); settings: for Plant response rating, Blackgrass: scale 0 to 100, 0 no effect, 100 complete control
Method in brief: as §1

[3] = system: oilseed rape (Brassica napus); settings: for Plant response rating, Oilseed Rape: scale 0 to 100, 0 no effect, 100 complete control
Method in brief: as §1

[4] = system: crabgrass, large (large crabgrass, Digitaria sanguinalis); settings: for Plant response rating, Crabgrass, Large: scale 0 to 100, 0 no effect, 100 complete control
Method in brief: as §1

[5] = system: wheat (winter wheat, Triticum aestivum); settings: for Plant response rating, Wheat: scale 0 to 100, 0 no effect, 100 complete control
Method in brief: as §1

[6] = system: lambsquarters (Chenopodium album); settings: for Plant response rating, Lambsquarters: scale 0 to 100, 0 no effect, 100 complete control
Method in brief: as §1

[7] = system: foxtail, giant (giant foxtail, Setaria faberii); settings: for Plant response rating, Foxtail, Giant: scale 0 to 100, 0 no effect, 100 complete control
Method in brief: as §1

[8] = system: waterhemp (common waterhemp, Amaranthus rudis); settings: for Plant response rating, Waterhemp: scale 0 to 100, 0 no effect, 100 complete control
Method in brief: as §1

[9] = system: Galium (catchweed bedstraw, Galium aparine); settings: for Plant response rating, Galium: scale 0 to 100, 0 no effect, 100 complete control
Method in brief: as §1

[10] = system: morningglory (Ipomoea coccinea); settings: for Plant response rating, Morningglory: scale 0 to 100, 0 no effect, 100 complete control
Method in brief: as §1

[11] = system: corn (Zea mays); settings: for Plant response rating, Corn: scale 0 to 100, 0 no effect, 100 complete control
Method in brief: as §1

[12] = system: johnsongrass (Sorghum halepense); settings: for Plant response rating, Johnsongrass: scale 0 to 100, 0 no effect, 100 complete control
Method in brief: as §1

[13] = system: velvetleaf (Abutilon theophrasti); settings: for Plant response rating, Velvetleaf: scale 0 to 100, 0 no effect, 100 complete control
Method in brief: as §1

[14] = system: ragweed (common ragweed, Ambrosia elatior); settings: for Plant response rating, Ragweed: scale 0 to 100, 0 no effect, 100 complete control
Method in brief: as §1

[15] = system: soybean (Glycine max); settings: for Plant response rating, Soybean: scale 0 to 100, 0 no effect, 100 complete control
Method in brief: as §1

[16] = system: nutsedge, yellow (yellow nutsedge, Cyperus esculentus); settings: for Plant response rating, Nutsedge, Yellow: scale 0 to 100, 0 no effect, 100 complete control
Method in brief: as §1

[17] = system: ryegrass, Italian (Italian ryegrass, Lolium multiflorum); settings: for Plant response rating, Ryegrass, Italian: scale 0 to 100, 0 no effect, 100 complete control
Method in brief: as §1

[18] = 31 g ai/ha, 0 is no effect, 100 is complete control

In the case of `O=C1NCC(c2ccc(I)cc2)C1C(=O)Nc1cccc(F)c1F` (racemic) [Compound 700], the “Plant response rating (scale of 0 to 100), Barnyardgrass” value [1, 18] is reported as 75, the “Plant response rating, Barnyardgrass” value ([1]; 62 g ai/ha) is reported as 85 and the “Plant response rating, Barnyardgrass” value ([1]; 125 g ai/ha) is reported as 90. For the same compound, the “Plant response rating, Barnyardgrass” value ([1]; 250 g ai/ha) was 95, the “Plant response rating (scale of 0 to 100), Blackgrass” value [2, 18] was 20 and the “Plant response rating, Blackgrass” value ([2]; 62 g ai/ha) was 55. For the same compound, the “Plant response rating, Blackgrass” value ([2]; 125 g ai/ha) was 60, the “Plant response rating, Blackgrass” value ([2]; 250 g ai/ha) was 85 and the “Plant response rating (scale of 0 to 100), Oilseed Rape” value [3, 18] was 0. The “Plant response rating, Oilseed Rape” value ([3]; 62 g ai/ha) was 30, the “Plant response rating, Oilseed Rape” value ([3]; 125 g ai/ha) was 60 and the “Plant response rating, Oilseed Rape” value ([3]; 250 g ai/ha) was 50. The “Plant response rating (scale of 0 to 100), Crabgrass, Large” value [4, 18] was 95, the “Plant response rating, Crabgrass, Large” value ([4]; 62 g ai/ha) was 95 and the “Plant response rating, Crabgrass, Large” value ([4]; 125 g ai/ha) was 95. For the same compound, the “Plant response rating, Crabgrass, Large” value ([4]; 250 g ai/ha) was 98, the “Plant response rating (scale of 0 to 100), Wheat” value [5, 18] was 0 and the “Plant response rating, Wheat” value ([5]; 62 g ai/ha) was 0. For the same compound, the “Plant response rating, Wheat” value ([5]; 125 g ai/ha) was 0, the “Plant response rating, Wheat” value ([5]; 250 g ai/ha) was 70 and the “Plant response rating (scale of 0 to 100), Lambsquarters” value [6, 18] was 0. For the same compound, the “Plant response rating, Lambsquarters” value ([6]; 62 g ai/ha) was 25, the “Plant response rating, Lambsquarters” value ([6]; 125 g ai/ha) was 80 and the “Plant response rating, Lambsquarters” value ([6]; 250 g ai/ha) was 85. For the same compound, the “Plant response rating (scale of 0 to 100), Foxtail, Giant” value [7, 18] was 80, the “Plant response rating, Foxtail, Giant” value ([7]; 62 g ai/ha) was 85 and the “Plant response rating, Foxtail, Giant” value ([7]; 125 g ai/ha) was 90. The “Plant response rating, Foxtail, Giant” value ([7]; 250 g ai/ha) was 90, the “Plant response rating (scale of 0 to 100), Waterhemp” value [8, 18] was 10 and the “Plant response rating, Waterhemp” value ([8]; 62 g ai/ha) was 65. The “Plant response rating, Waterhemp” value ([8]; 125 g ai/ha) was 75, the “Plant response rating, Waterhemp” value ([8]; 250 g ai/ha) was 70 and the “Plant response rating (scale of 0 to 100), Galium” value [9, 18] was 0. The “Plant response rating, Galium” value ([9]; 62 g ai/ha) was 0, the “Plant response rating, Galium” value ([9]; 125 g ai/ha) was 50 and the “Plant response rating, Galium” value ([9]; 250 g ai/ha) was 40. For the same compound, the “Plant response rating (scale of 0 to 100), Morningglory” value [10, 18] was 0, the “Plant response rating, Morningglory” value ([10]; 62 g ai/ha) was 0 and the “Plant response rating, Morningglory” value ([10]; 125 g ai/ha) was 0. The “Plant response rating, Morningglory” value ([10]; 250 g ai/ha) was 0, the “Plant response rating (scale of 0 to 100), Corn” value [11, 18] was 0 and the “Plant response rating, Corn” value ([11]; 62 g ai/ha) was 0. The “Plant response rating, Corn” value ([11]; 125 g ai/ha) was 10, the “Plant response rating, Corn” value ([11]; 250 g ai/ha) was 50 and the “Plant response rating (scale of 0 to 100), Johnsongrass” value [12, 18] was 100. The “Plant response rating, Johnsongrass” value ([12]; 62 g ai/ha) was 0, the “Plant response rating, Johnsongrass” value ([12]; 125 g ai/ha) was 10 and the “Plant response rating, Johnsongrass” value ([12]; 250 g ai/ha) was 60. The “Plant response rating (scale of 0 to 100), Velvetleaf” value [13, 18] was 0, the “Plant response rating, Velvetleaf” value ([13]; 62 g ai/ha) was 0 and the “Plant response rating, Velvetleaf” value ([13]; 125 g ai/ha) was 20. The “Plant response rating, Velvetleaf” value ([13]; 250 g ai/ha) was 40, the “Plant response rating (scale of 0 to 100), Ragweed” value [14, 18] was 10 and the “Plant response rating, Ragweed” value ([14]; 62 g ai/ha) was 50. For the same compound, the “Plant response rating, Ragweed” value ([14]; 125 g ai/ha) was 75, the “Plant response rating, Ragweed” value ([14]; 250 g ai/ha) was 75 and the “Plant response rating (scale of 0 to 100), Soybean” value [15, 18] was 100. For the same compound, the “Plant response rating, Soybean” value ([15]; 62 g ai/ha) was 0, the “Plant response rating, Soybean” value ([15]; 125 g ai/ha) was 15 and the “Plant response rating, Soybean” value ([15]; 250 g ai/ha) was 0. The “Plant response rating (scale of 0 to 100), Nutsedge, Yellow” value [16, 18] was 0, the “Plant response rating, Nutsedge, Yellow” value ([16]; 62 g ai/ha) was 0 and the “Plant response rating, Nutsedge, Yellow” value ([16]; 125 g ai/ha) was 0. For the same compound, the “Plant response rating, Nutsedge, Yellow” value ([16]; 250 g ai/ha) was 0, the “Plant response rating (scale of 0 to 100), Ryegrass, Italian” value [17, 18] was 0 and the “Plant response rating, Ryegrass, Italian” value ([17]; 62 g ai/ha) was 20. The “Plant response rating, Ryegrass, Italian” value ([17]; 125 g ai/ha) was 35 and the “Plant response rating, Ryegrass, Italian” value ([17]; 250 g ai/ha) was 45.
